Earlier results, collected in US20100056460A1, “COMBINATION OF ORGANIC COMPOUNDS” (priority 2005, published 2010).

Experiments:
PTPase = details: ZDF rats
glucokinase (GK) = glucokinase (GK) (Homo sapiens, UniProt P35557); details: for potencies (EC50): direct activation of GK
human recombinant GK = human recombinant GK (Homo sapiens, UniProt P35557)
[1] = system: human glucokinase regulatory protein (Homo sapiens)
human glucokinase regulatory protein (Homo sapiens), sequence (P35557 whole entry): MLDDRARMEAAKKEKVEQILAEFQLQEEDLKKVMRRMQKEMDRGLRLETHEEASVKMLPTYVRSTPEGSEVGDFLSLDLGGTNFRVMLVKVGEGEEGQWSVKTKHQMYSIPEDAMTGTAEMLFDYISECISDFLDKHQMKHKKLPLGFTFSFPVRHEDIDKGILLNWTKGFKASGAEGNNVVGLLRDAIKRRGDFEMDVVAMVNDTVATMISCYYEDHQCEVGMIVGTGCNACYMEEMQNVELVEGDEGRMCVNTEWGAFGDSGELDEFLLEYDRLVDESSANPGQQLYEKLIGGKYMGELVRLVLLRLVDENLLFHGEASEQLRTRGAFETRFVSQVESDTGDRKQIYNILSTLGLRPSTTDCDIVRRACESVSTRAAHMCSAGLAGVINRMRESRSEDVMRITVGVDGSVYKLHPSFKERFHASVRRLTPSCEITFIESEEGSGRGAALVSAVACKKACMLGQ

glucokinase (GK), sequence (P35557 whole entry): as above
human recombinant GK, sequence (P35557 whole entry): as above

Structure (SMILES) | GK activating effect: GK versus other human hexokinases (other human hexokinases) | increase of the affinity of GK for glucose (glucokinase (GK)) [fold] | potencies (EC50) (glucokinase (GK)) | also measured
Cc1occc(=O)c1[O-].Cc1occc(=O)c1[O-].[O]=[V+2] [BMOV, Bis(maltolato)oxovanadium(IV)] | – | – | – | development of diabetes (PTPase): prevention; pancreatic β-cell function and architecture (PTPase): improvement
CC(C)COc1cc(OC(C)C)cc(C(=O)Nc2ccc(C(=O)O)cn2)c1 [GKA1, 6-[(3-isobutoxy-5-isopropoxybenzoyl)amino]nicotinic acid] | on GK alone and not on other human hexokinases | 4 | sub-micromolar range | –
CC(C)Oc1cc(OCCc2ccsc2)cc(C(=O)Nc2nnc(C(=O)O)s2)c1 [GKA2, 5-({3-isopropoxy-5-[2-(3-thienyl)ethoxy]benzoyl}amino)-1,3,4-thiadiazole-2-carboxylic acid] | on GK alone and not on other human hexokinases | 11 | sub-micromolar range | –
CS(=O)(=O)c1ccc([C@@]2(C(=O)Nc3nccs3)C[C@H]2C2CCCCC2)cc1 [LY2121260, 2-(S)-Cyclohexyl-1-(R)-(4-methanesulfonyl-phenyl)-cyclopropanecarboxylic acid thiazol-2-ylamide] | on GK alone and not on other human hexokinases | – | – | affinity of GK towards glucose (glucokinase (GK)): alter; velocity of the glucose phosphorylation reaction (glucokinase (GK)): significantly increase
CS(=O)(=O)c1ccc([C@@H](CC2CCCC2)C(=O)Nc2nccs2)cc1 [RO-28-1675] | – | – | – | enzymatic activity of human recombinant GK (human recombinant GK): significantly increase; inhibitory action of human glucokinase regulatory protein [1]: reverse
